The values below come from US9968627B2 (Celgene Corporation, priority 2013, dated 2018).

Values after ≈ are worked out from the molar mass of the structure shown.

Broadly, the solubility is the dissolved amount per volume that the medium holds.

Data set [1] can be described thus: Solubility of 5-azacytidine in various solvents at ambient temperature (visual, solvent aliquot addition). The class given is physicochemical. As to conditions: thermodynamic from solid. On the procedure: Solubility was estimated by treating a weighed sample of 5-azacytidine with measured aliquots of the test solvent at ambient temperature, with shaking and/or sonication between aliquots. Dissolution was determined by visual inspection. Solubility numbers were calculated by dividing the […]. The actual solubilities may be greater than the numbers calculated because of the use of solvent aliquots that were too large or because of slow dissolution rates. […] The solubility number is expressed as “greater than” if dissolution occurred on addition of the first solvent aliquot.

Data set [2] concerns subjects with higher-risk MDS. As to conditions: Phase III study, administered subcutaneously; cited from earlier work.

For the molecule `Nc1ncn([C@@H]2O[C@H](CO)[C@@H](O)[C@H]2O)c(=O)n1` [5-azacytidine, 4-amino-1-β-D-ribofuranosyl-1,3,5-triazin-2(1H)-one], the solubility in data set [1] (1:1 methanol/water, aqueous with cosolvent or surfactant or cyclodextrin, 1:1 methanol/water) came out at 2800 µg/mL (≈ 11.5 mM); in data set [1] (1:2 methanol/water, aqueous with cosolvent or surfactant or cyclodextrin, 1:2 methanol/water), 3100 µg/mL (≈ 12.7 mM); in data set [1] (1:2 methanol/water, aqueous with cosolvent or surfactant or cyclodextrin, 1:2 methanol/water (second line printed with this solvent)), 4600 µg/mL (≈ 18.8 mM); in data set [1] (DMF, organic solvent or mixture), 1700 µg/mL (≈ 6.96 mM); in data set [1] (DMSO, organic solvent or mixture), 2200 µg/mL (≈ 9.01 mM). Besides, the “Survival and time to AML transformation or death” value in data set [2] is “significantly prolonged survival and time to AML transformation or death”.
